Results: patent publication US12421212B2, “Substituted benzenecarboxamides as IL-17A modulators” (DiCE Alpha, Inc., priority 2019, dated 2025)

Target: T1, IL-17A/A (Homo sapiens, UniProt Q16552)
T1 construct: purchased Genscript Z03228
T1 sequence (Q16552 24-155): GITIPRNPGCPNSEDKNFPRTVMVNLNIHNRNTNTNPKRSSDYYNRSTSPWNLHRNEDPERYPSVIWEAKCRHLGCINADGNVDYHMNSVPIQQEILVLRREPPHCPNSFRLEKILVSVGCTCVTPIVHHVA
Assay: IL-17A/A HEK-Blue Cell Assay
Type: cell-based
Conditions: HEK-Blue IL-17A reporter cell line, SEAP readout at A630, 20 hours incubation with IL-17A/A, top concentration 10 uM, 1 uM or 0.3 uM; for IC50: read-out: IL-17A/A inhibition (pIC50) (converted)

Row | SMILES | IC50 [nM] | IL-17A/A inhibition (pIC50)
1 | CCn1nccc1C(=O)N[C@H](C(=O)Nc1ccc([C@H](C)[C@@H](NC(=O)C2CC2)C(=O)N2CCN(C)CC2)cc1F)C1CCCCCC1 [Compound 535] | < 10 | 
2 | C[C@@H](c1ccc(NC(=O)[C@@H](NC(=O)C(F)(F)C2CC2)C2CCCCCC2)c(F)c1)[C@@H](NC(=O)c1cnns1)C(=O)N1CCN(C)CC1 [Compound 536] | 10 to 100 | 
3 | CCC(=O)N[C@@H](C(=O)N[C@@H](C)C1CC1)[C@@H](C)c1ccc(NC(=O)[C@@H](NC(=O)c2ccnn2CC)C2CCCCCC2)c(F)c1 [Compound 537] | 10 to 100 | 
4 | CCC(=O)N[C@@H](C(=O)NCC1CCC1)[C@@H](C)c1ccc(NC(=O)[C@@H](NC(=O)c2ccnn2CC)C2CCCCCC2)c(F)c1 [Compound 538] | < 10 | 
5 | [2H]C([2H])([2H])N1CCN(C(=O)[C@H](NC(=O)CC)[C@@H](C)c2ccc(NC(=O)[C@@H](NC(=O)c3ccnn3CC)[C@H]3CC[C@H](C)CC3)c(F)c2)CC1 [Compound 539] | < 10 | 
6 | CCC(=O)N[C@H](Cc1ccc(NC(=O)[C@@H](Nc2nccn3nccc23)C2CCCCC2)c(F)c1)C(=O)N1CCN(C)CC1 [Compound 540] |  | X2b (compounds were evaluated up to 1 uM and inhibited activity at 1 uM by less than 20%)
7 | CCC(=O)N[C@@H](C(=O)N1CCN(C)CC1)[C@@H](C)c1ccc(NC(=O)[C@H](NC(=O)c2ccnn2CC)[C@H]2CC[C@H](C)CC2)c(F)c1 [Compound 541] |  | X3b (compounds were evaluated up to 0.3 uM and inhibited activity at 0.3 uM by less than 20%)
8 | CCC(=O)N[C@H](C(=O)N1CCN(C)CC1)[C@H](C)c1ccc(NC(=O)[C@@H](NC(=O)c2ccnn2CC)[C@H]2CC[C@H](C)CC2)c(F)c1 [Compound 542] |  | X3b (compounds were evaluated up to 0.3 uM and inhibited activity at 0.3 uM by less than 20%)
9 | CCC(=O)N[C@H](C(=O)N1CCN(C)CC1)[C@@H](C)c1ccc(NC(=O)[C@@H](NC(=O)c2ccnn2CC)[C@H]2CC[C@H](C)CC2)c(F)c1 [Compound 543] |  | X3b (compounds were evaluated up to 0.3 uM and inhibited activity at 0.3 uM by less than 20%)
10 | CCC(=O)N[C@@H](C(=O)N1CCN(C)CC1)[C@H](C)c1ccc(NC(=O)[C@@H](NC(=O)c2ccnn2CC)[C@H]2CC[C@H](C)CC2)c(F)c1 [Compound 544] |  | X3a (compounds were evaluated up to 0.3 uM and did not inhibit activity by >80%, however they showed some activity at 0.3 uM (less than 80% and more than 20%))
11 | CCC(=O)N[C@@H](C(=O)N1CCN(C)CC1)[C@@H](C)c1ccc(NC(=O)[C@@H](NC(=O)c2ccnn2C2COC2)[C@H]2CC[C@H](C)CC2)c(F)c1 [Compound 545] | 10 to 100 | 
12 | C[C@@H](c1ccc(NC(=O)[C@@H](NC(=O)c2ccnn2C2COC2)[C@H]2CC[C@H](C)CC2)c(F)c1)[C@@H](NC(=O)c1cnns1)C(=O)N1CCN(C)CC1 [Compound 546] | 10 to 100 | 
13 | CCC(=O)N[C@@H](C(=O)N1CCN(C)CC1)[C@@H](C)c1ccc(NC(=O)[C@@H](NC(=O)c2cnon2)[C@H]2CC[C@H](C)CC2)c(F)c1 [Compound 547] |  | X3b (compounds were evaluated up to 0.3 uM and inhibited activity at 0.3 uM by less than 20%)
14 | C[C@@H](c1ccc(NC(=O)[C@@H](NC(=O)c2cnon2)[C@H]2CC[C@H](C)CC2)c(F)c1)[C@@H](NC(=O)c1cnns1)C(=O)N1CCN(C)CC1 [Compound 548] |  | X2b (compounds were evaluated up to 1 uM and inhibited activity at 1 uM by less than 20%)
15 | CCC(=O)N[C@@H](C(=O)N1CCN(C)CC1)[C@@H](C)c1ccc(NC(=O)[C@@H](NC(=O)c2nonc2C(C)C)[C@H]2CC[C@H](C)CC2)c(F)c1 [Compound 549] | < 10 | 
16 | CCC(=O)N[C@@H](C(=O)N1CCN(C)CC1)[C@@H](C)c1ccc(NC(=O)C(NC(=O)c2nonc2CC)C(CC)c2ccc(Cl)cc2)c(F)c1 (stereo partly drawn) [Compound 567] |  | X2b (compounds were evaluated up to 1 uM and inhibited activity at 1 uM by less than 20%)
17 | CCc1nonc1C(=O)N[C@H](C(=O)Nc1ccc([C@H](C)[C@@H](NC(=O)c2ncns2)C(=O)N2CCN(C)CC2)cc1F)[C@H]1CC[C@H](C)CC1 [Compound 575] |  | X3a (compounds were evaluated up to 0.3 uM and did not inhibit activity by >80%, however they showed some activity at 0.3 uM (less than 80% and more than 20%))
18 | CCc1nonc1C(=O)N[C@H](C(=O)Nc1ccc([C@H](C)[C@@H](NC(=O)c2ncccc2OC)C(=O)N2CCN(C)CC2)cc1F)[C@H]1CC[C@H](C)CC1 [Compound 578] |  | X3b (compounds were evaluated up to 0.3 uM and inhibited activity at 0.3 uM by less than 20%)
19 | CCC(=O)N[C@@H](C(=O)N1CC(n2ccnc2)C1)[C@@H](C)c1ccc(NC(=O)[C@@H](NC(=O)c2nonc2CC)[C@H]2CC[C@H](C)CC2)c(F)c1 [Compound 580] |  | X3a (compounds were evaluated up to 0.3 uM and did not inhibit activity by >80%, however they showed some activity at 0.3 uM (less than 80% and more than 20%))
20 | CCC(=O)N[C@@H](C(=O)N1CCN(C)CC1)[C@@H](C)c1ccc(NC(=O)C(NC(=O)c2ccnn2CC)C(C)C2CCC(C)CC2)c(F)c1 (stereo partly drawn) [Compound 612] |  | X2b (compounds were evaluated up to 1 uM and inhibited activity at 1 uM by less than 20%)

Further lines, with some results ahead:

Row | IC50 [nM] | SMILES | IL-17A/A inhibition (pIC50)
21 | < 10 | CC(C)c1nonc1C(=O)N[C@H](C(=O)Nc1ccc([C@H](C)[C@@H](NC(=O)c2cnns2)C(=O)N2CCN(C)CC2)cc1F)[C@H]1CC[C@H](C)CC1 [Compound 550] | 
22 | 10 to 100 | CCC(=O)N[C@@H](C(=O)N1CCN(C)CC1)[C@@H](C)c1ccc(NC(=O)[C@@H](NC(=O)c2nonc2OC)[C@H]2CC[C@H](C)CC2)c(F)c1 [Compound 551] | 
23 | 10 to 100 | COc1nonc1C(=O)N[C@H](C(=O)Nc1ccc([C@H](C)[C@@H](NC(=O)c2cnns2)C(=O)N2CCN(C)CC2)cc1F)[C@H]1CC[C@H](C)CC1 [Compound 552] | 
24 | 10 to 100 | CCC(=O)N[C@@H](C(=O)N1CCN(C)CC1)[C@@H](C)c1ccc(NC(=O)C(NC(=O)c2nonc2CC)C(CC)c2ccc(Cl)cc2)c(F)c1 (stereo partly drawn) [Compound 566] | 
25 | 100 to 10000 | CCC(=O)N[C@@H](C(=O)N1CCN(C)CC1)C(OC)c1ccc(NC(=O)[C@@H](NC(=O)c2ccnn2CC)[C@H]2CC[C@H](C)CC2)c(F)c1 (stereo partly drawn) [Compound 572] | 
26 | < 10 | [2H]C1([2H])N(C)C([2H])([2H])C([2H])([2H])N(C(=O)[C@H](NC(=O)CC)[C@@H](C)c2ccc(NC(=O)[C@@H](NC(=O)c3ccnn3CC)[C@H]3CC[C@H](C)CC3)c(F)c2)C1([2H])[2H] [Compound 573] | 
27 | < 10 | CCc1nonc1C(=O)N[C@H](C(=O)Nc1ccc([C@H](C)[C@@H](NC(=O)N(CC)C2CC2)C(=O)N2CCN(C)CC2)cc1F)[C@H]1CC[C@H](C)CC1 [Compound 574] | 
28 | 10 to 100 | CCc1nonc1C(=O)N[C@H](C(=O)Nc1ccc([C@H](C)[C@@H](NC(=O)c2cccnc2OC)C(=O)N2CCN(C)CC2)cc1F)[C@H]1CC[C@H](C)CC1 [Compound 576] | 
29 | 10 to 100 | CCc1nonc1C(=O)N[C@H](C(=O)Nc1ccc([C@H](C)[C@@H](NC(=O)c2c(OC)cnn2CC)C(=O)N2CCN(C)CC2)cc1F)[C@H]1CC[C@H](C)CC1 [Compound 577] | 
30 | 10 to 100 | CCc1nonc1C(=O)N[C@H](C(=O)Nc1ccc([C@H](C)[C@@H](NC(=O)c2ccnc3c2OCCO3)C(=O)N2CCN(C)CC2)cc1F)[C@H]1CC[C@H](C)CC1 [Compound 579] | 
31 | 10 to 100 | CCC(=O)N[C@@H](C(=O)N1CCN(C)CC1)[C@@H](C)c1ccc(NC(=O)[C@@H](NC(=O)c2nonc2C)[C@H]2CC[C@H](C)CC2)c(F)c1 [Compound 582] | 
32 | < 10 | Cc1nonc1C(=O)N[C@H](C(=O)Nc1ccc([C@H](C)[C@@H](NC(=O)c2cnns2)C(=O)N2CCN(C)CC2)cc1F)[C@H]1CC[C@H](C)CC1 [Compound 583] | 
33 | < 10 | CCC(=O)N[C@@H](C(=O)N1CCN(C)CC1)[C@@H](C)c1ccc(NC(=O)[C@@H](NC(=O)c2nonc2CC)[C@H](C)[C@H]2CC[C@H](C)CC2)c(F)c1 [Compound 586] | 
34 | 10 to 100 | CCC(=O)N[C@@H](C(=O)N1CCN(C)CC1)[C@@H](C)c1ccc(NC(=O)[C@@H](NC(=O)c2ccnn2CC)[C@H](C)[C@H]2CC[C@H](C)CC2)c(F)c1 [Compound 587] | 
35 | < 10 | CCn1nnnc1C(=O)N[C@H](C(=O)Nc1ccc([C@H](C)[C@@H](NC(=O)N(C)C2CC2)C(=O)N2CCN(C)[C@H](C)C2)cc1F)[C@H]1CC[C@H](C)CC1 [Compound 604] | 
36 | 10 to 100 | CCn1nnnc1C(=O)N[C@H](C(=O)Nc1ccc([C@H](C)[C@@H](NC(=O)C(C)(F)F)C(=O)N2CCN(C)[C@H](C)C2)cc1F)[C@H]1CC[C@H](C)CC1 [Compound 605] | 
37 | 10 to 100 | CCC(=O)N[C@@H](C(=O)N1CCN(C)CC1)[C@@H](C)c1ccc(NC(=O)C(NC(=O)c2nonc2CC)C(C)C2CCC(F)(F)CC2)c(F)c1 (stereo partly drawn) [Compound 607] | 
38 | 100 to 10000 | CCC(=O)N[C@@H](C(=O)N1CCN(C)CC1)[C@@H](C)c1ccc(NC(=O)[C@@H](NC(=O)c2ccnn2CC)[C@H](OC)c2ccc(F)cc2)c(F)c1 [Compound 610] | 
39 | 10 to 100 | CCC(=O)N[C@@H](C(=O)N1CCN(C)CC1)[C@@H](C)c1ccc(NC(=O)[C@@H](NC(=O)c2nonc2CC)[C@H](OC)c2ccc(F)cc2)c(F)c1 [Compound 611] | 
40 | < 10 | COc1ccc(C(F)(F)C(=O)N[C@H](C(=O)Nc2ccc([C@H](C)[C@@H](NC(=O)c3cnns3)C(=O)N3CCN(C)CC3)cc2F)[C@H]2CC[C@H](C)CC2)cn1 [Compound 620] | 
41 | 10 to 100 | COc1ncc(C(F)(F)C(=O)N[C@H](C(=O)Nc2ccc([C@H](C)[C@@H](NC(=O)c3cnns3)C(=O)N3CCN(C)CC3)cc2F)[C@H]2CC[C@H](C)CC2)cn1 [Compound 621] | 
42 | 10 to 100 | COc1ccc(C(F)(F)C(=O)N[C@H](C(=O)Nc2ccc([C@H](C)[C@@H](NC(=O)c3cnsc3)C(=O)N3CCN(C)CC3)cc2F)[C@H]2CC[C@H](C)CC2)cn1 [Compound 622] | 
